Reference: PMC8941859, “The FDA-Approved Drug Cobicistat Synergizes with Remdesivir To Inhibit SARS-CoV-2 Replication In Vitro and Decreases Viral Titers and Disease Progression in Syrian Hamsters” (mBio, 2022)
Several values for one entry are separate records, joined by “and”; a condition that tells them apart may be missing. Equal entries are not always repeated. Where two headings read alike, the source gives them in different places.

How the values were obtained:
in vitro = type: cell-based; details: human; African green monkey
Description: Cell viability was evaluated by the MTT [3-(4,5-dimethylthiazol-2-yl)-2,5-diphenyl tetrazolium bromide] assay and by crystal violet staining as previously described ([76], [77]). Briefly, the MTT assay was conducted using the CellTiter 96 nonradioactive cell proliferation assay (MTT) (Promega; Madison, WI, USA). Cells were plated in a 96‐well plate at a concentration of 3 × 10^6 cells/mL in 100 μL of medium. The MTT solution (15 μL) was added to each well, and after 2 to 4 h, the reaction was stopped by the addition of 100 μL of 10% SDS. Absorbance values were acquired using an Infinite 200 PRO (Tecan, Männedorf, Switzerland) multimode plate reader at a 570-nm wavelength.
Data normality assumptions were tested by D’Agostino and Pearson normality test (for n > 3). Multiple-group comparisons were conducted by nonparametric Kruskal-Wallis test, followed by Dunn’s posttest, or by one-way or two-way analysis of variance (ANOVA) followed by Holm-Sidak or Dunnett posttests, respectively. Half-maximal inhibitory (IC50), effective (EC50), and cytotoxic (CC50) concentrations of the compounds were estimated by nonlinear regression after data normalization. […] Data analysis was conducted using GraphPad Prism v6 (GraphPad Software, San Diego, CA, USA). Synergy scores were calculated with the SynergyFinder web tool ([79]) using the Zero Interaction Potency (ZIP) model ([80]).

3CLpro = 3CLpro (Severe acute respiratory syndrome coronavirus 2, UniProt P0DTD1); test: 3CLpro fluorescence resonance energy transfer (FRET) assay; type: biochemical, SARS-CoV-2; details: for FRET-determined EC50 (3CLpro): normalized to untreated control, nonlinear regression
Description: The activity of 3CLpro was measured by FRET assay (BPS Bioscience, San Diego, CA, USA) according to the manufacturer’s instructions and as previously described ([34]). […] Wells without drugs or without 3CLpro were used as positive control of 3CLpro activity and blank control, respectively. After a 30-min incubation, the 3CLpro substrate was added to each well and the plate was stored for 4 h in the dark. The fluorescence signal was acquired on an Infinite 200 PRO (Tecan, Männedorf, Switzerland) using an excitation wavelength of 360 nm and a detection wavelength of 460 nm. Relative 3CLpro was expressed as percentage of the positive control after subtraction of the blank.

[1] = system: Vero E6 cells transfected with the SARS-CoV-2 S-protein; test: Syncytium formation assay; type: cell-based, African green monkey; details: 1, 5, 10 μM; 24 h posttransfection
[2] = target: spike protein and human ACE2 (Severe acute respiratory syndrome coronavirus 2, UniProt P0DTC2); test: cell-based; parameters: species or system SARS-CoV-2; human; details: 1 h preincubation, luciferase after 24 h; read-out: IC50 of S-glycoprotein-mediated cell fusion
SARS-CoV-2 [3] = test: microbe, parasite or virus in culture; type: cell-based
SARS-CoV-2 [4] = test: Replication-competent virus in supernatant (plaque assay); type: cell-based; details: Vero E6 cells, MOI 0.05, 2.5-10 μM, 24 h postinfection
SARS-CoV-2 [5] = type: cell-based; details: 5 to 10 μM; MTT and crystal violet; Calu-3, T84, Vero E6
SARS-CoV-2 [6] = test: SARS-CoV-2-infected Syrian hamsters

With `CC(C)c1nc(CN(C)C(=O)N[C@@H](CCN2CCOCC2)C(=O)N[C@H](CC[C@H](Cc2ccccc2)NC(=O)OCc2cncs2)Cc2ccccc2)cs1` [Cobicistat] the CC50 at 48 h (in vitro) was 38.7 to 53 µM, the “Effect on catalytic activity of 3CLpro” value (3CLpro; FRET assay, Fig. S3A) was “inactive” and the “FRET-determined EC50 (3CLpro)” value (3CLpro) was “Could not be calculated”. The Syncytium formation [1] was “decreased syncytium formation”, the IC50 [2] was 3.83 µM and 3.8 µM and the “Effect on intracellular and supernatant viral RNA” value (SARS-CoV-2 [3]; Calu-3 cells, time course, low-micromolar concentrations, qPCR N1 and N2 primers) was “dose-dependent inhibitory effect”. The IC50 (SARS-CoV-2 [3]; Severe acute respiratory syndrome coronavirus 2, Calu-3, Vero E6 and T84 cells, MOI 0.05 and 0.5, treated 2 h postinfection, 48 h, read-out: IC50 (viral RNA release in supernatant), range) was 0.58 to 8.76 µM, the “Levels of replication-competent virus in supernatant” value (SARS-CoV-2 [4]) was “able to decrease the levels of replication-competent virus” and the “Viability of infected cells” value (SARS-CoV-2 [5]) was “partially rescue viability of infected cells”. For the same molecule, the “Tolerability of dosing regimen in vivo” value (SARS-CoV-2 [6]; 50 mg/kg) was “well tolerated”, the “Alveolar alterations: Alveolar edema” value (SARS-CoV-2 [6]; Day 3, single animal) was 2 and 0 and the “Alveolar alterations: Epithelial necrosis” value (SARS-CoV-2 [6]; Day 3, single animal) was 1 and 0 and (1). The “Alveolar alterations: Type II hyperplasia” value (SARS-CoV-2 [6]; Day 3, single animal) was 1–2 and 0, the “Pneumonia: Consolidated lung area (%)” value (SARS-CoV-2 [6]; Day 3, single animal) was 20% and 0% and <5% and the “Pneumonia: Inflammation score” value (SARS-CoV-2 [6]; Day 3, single animal) was 2–3 and (1) and 1. The “Pneumonia: Lung area affected (%)” value (SARS-CoV-2 [6]; Day 3, single animal) was 30% and <5% and 5–10%, the “Vascular alterations: Endothelialitis” value (SARS-CoV-2 [6]; Day 3, single animal) was 2–3 and (1) and 1–2 and the “Vascular alterations: Perivascular edema” value (SARS-CoV-2 [6]; Day 3, single animal) was 1–2 and 0. For the same molecule, the “Vascular alterations: Perivascular lymphocytes” value (SARS-CoV-2 [6]; Day 3, single animal) was 1–2 and 0, the “Alveolar alterations: Alveolar edema” value (SARS-CoV-2 [6]; Day 5, single animal) was 3 and 2 and 2–3 and the “Alveolar alterations: Epithelial necrosis” value (SARS-CoV-2 [6]; Day 5, single animal) was 2 and 1. The “Alveolar alterations: Type II hyperplasia” value (SARS-CoV-2 [6]; Day 5, single animal) was 2–3 and 3 and 1–2, the “Pneumonia: Consolidated lung area (%)” value (SARS-CoV-2 [6]; Day 5, single animal) was 50% and 30% and 35% and the “Pneumonia: Inflammation score” value (SARS-CoV-2 [6]; Day 5, single animal) was 3 and 2–3. The “Pneumonia: Lung area affected (%)” value (SARS-CoV-2 [6]; Day 5, single animal) was 80% and 70% and 50%, the “Vascular alterations: Endothelialitis” value (SARS-CoV-2 [6]; Day 5, single animal) was 2–3 and 3 and the “Vascular alterations: Perivascular edema” value (SARS-CoV-2 [6]; Day 5, single animal) was 2–3 and 2. For the same molecule, the “Vascular alterations: Perivascular lymphocytes” value (SARS-CoV-2 [6]; Day 5, single animal) was 2 and 1 and the “Infectious progeny in the lung (PFU, plaque assay)” value (SARS-CoV-2 [6]; cobicistat 50 mg/kg oral daily, remdesivir 15 mg/kg i.p. daily, days 3 and 5 p.i.) was “significant decrease”.
For `CCC(CC)COC(=O)[C@H](C)N[P@](=O)(OC[C@H]1O[C@@](C#N)(c2ccc3c(N)ncnn23)[C@H](O)[C@@H]1O)Oc1ccccc1` [Remdesivir, remdesivir], the IC50 (SARS-CoV-2 [3]; Severe acute respiratory syndrome coronavirus 2, Vero C1008, Vero E6 cells, MOI 0.5, 48 h, read-out: IC50 (viral RNA expression in supernatant)) was 0.74 µM, the IC50 (SARS-CoV-2 [3]; Severe acute respiratory syndrome coronavirus 2, T84 cells, MOI 0.5, 48 h, read-out: IC50 (viral RNA expression in supernatant)) was 0.35 µM and the “Alveolar alterations: Alveolar edema” value (SARS-CoV-2 [6]; Day 3, single animal) was 0. For the same molecule, the “Alveolar alterations: Epithelial necrosis” value (SARS-CoV-2 [6]; Day 3, single animal) was “(1) and 0”, the “Alveolar alterations: Type II hyperplasia” value (SARS-CoV-2 [6]; Day 3, single animal) was 0 and the “Pneumonia: Consolidated lung area (%)” value (SARS-CoV-2 [6]; Day 3, single animal) was 0%. The “Pneumonia: Inflammation score” value (SARS-CoV-2 [6]; Day 3, single animal) was “(1)”, the “Pneumonia: Lung area affected (%)” value (SARS-CoV-2 [6]; Day 3, single animal) was 5% and <5% and the “Vascular alterations: Endothelialitis” value (SARS-CoV-2 [6]; Day 3, single animal) was 0. The “Vascular alterations: Perivascular edema” value (SARS-CoV-2 [6]; Day 3, single animal) was “(1) and 0”, the “Vascular alterations: Perivascular lymphocytes” value (SARS-CoV-2 [6]; Day 3, single animal) was 0 and (1) and the “Alveolar alterations: Alveolar edema” value (SARS-CoV-2 [6]; Day 5, single animal) was 1 and 1–2 and 2. The “Alveolar alterations: Epithelial necrosis” value (SARS-CoV-2 [6]; Day 5, single animal) was 2, the “Alveolar alterations: Type II hyperplasia” value (SARS-CoV-2 [6]; Day 5, single animal) was 1 and 1–2 and the “Pneumonia: Consolidated lung area (%)” value (SARS-CoV-2 [6]; Day 5, single animal) was 25% and 35% and 30%. The “Pneumonia: Inflammation score” value (SARS-CoV-2 [6]; Day 5, single animal) was 2–3, the “Pneumonia: Lung area affected (%)” value (SARS-CoV-2 [6]; Day 5, single animal) was 40% and 70% and the “Vascular alterations: Endothelialitis” value (SARS-CoV-2 [6]; Day 5, single animal) was 2–3 and 2. The “Vascular alterations: Perivascular edema” value (SARS-CoV-2 [6]; Day 5, single animal) was “(1) and 1 and 2” and the “Vascular alterations: Perivascular lymphocytes” value (SARS-CoV-2 [6]; Day 5, single animal) was 2 and 1–2.
For `Cc1c(O)cccc1C(=O)N[C@@H](CSc1ccccc1)[C@H](O)CN1C[C@H]2CCCC[C@H]2C[C@H]1C(=O)NC(C)(C)C` [Nelfinavir], the “FRET-determined EC50 (3CLpro)” value (3CLpro) was “Could not be calculated”.
Molecule `Cc1cccc(C)c1OCC(=O)N[C@@H](Cc1ccccc1)[C@@H](O)C[C@H](Cc1ccccc1)NC(=O)[C@H](C(C)C)N1CCCNC1=O` [Lopinavir] has an EC50 (3CLpro) of 219 µM.
Work on `CCC[C@@]1(CCc2ccccc2)CC(O)=C([C@H](CC)c2cccc(NS(=O)(=O)c3ccc(C(F)(F)F)cn3)c2)C(=O)O1` [Tipranavir] yielded an EC50 (3CLpro) of 47 µM.
For `CC(C)CN(C[C@@H](O)[C@H](Cc1ccccc1)NC(=O)O[C@H]1CO[C@H]2OCC[C@H]21)S(=O)(=O)c1ccc(N)cc1` [Darunavir], the “FRET-determined EC50 (3CLpro)” value (3CLpro) was “Could not be calculated”.
